From patent publication US20090291066A1, “COMPOSITION AND METHOD OF TREATING FACIAL SKIN DEFECT” (priority 2008, published 2009)

How the values were obtained:
[1] = system: serum proteins; settings: in vivo; cited from earlier work
[2] = system: facial preadipocytes; test: Differentiation of human primary facial preadipocytes (lipid droplet formation, oil red O); assay type: cell-based; settings: cell source not given
Method: Human primary preadipocytes from facial and abdominal skin samples, obtained with informed consent, were isolated and cultured following a published procedure (Crandall et al, Endocrinology 140:154-8, 1999). Briefly, samples from abdominal or facial operations were subjected to enzymatic digestion in Krebs-Ringer-bicarbonate buffer (pH 7.4) containing 6 mM glucose and 2 mg/mL collagenase. After this initial enzymatic digestion, the content of the flask was passed through a sterile, 230-micron stainless steel tissue sieve (Cellector, Bellco Glass Inc., Vineland, N.J.) into a 50-mL sterile, plastic test tube. […]
All differentiation agents (IBMX, dexamethasone, insulin, and rosiglitazone) were added to the culture media 24 hours after the cells were seeded. […] Subsequently, the cultures were incubated with oil red O (a dye that binds to neutral lipids); the dye was then extracted and quantified by spectrophotometry. […]
Human primary preadipocytes were isolated and cultured as described in Example 2. […] Subsequently, the cultures were incubated with oil red O (a dye that binds to neutral lipids); the dye was then extracted and quantified by spectrophotometry. […]

Compound	bound to serum proteins [1]	adipogenesis of preadipocytes ([2]; added in the media at 5-50 μM in addition to IBMX, insulin and dexamethasone)	effect on the differentiation process ([2]; alone, without IBMX and dexamethasone)
CN(CCOc1ccc(CC2SC(=O)NC2=O)cc1)c1ccccn1 (stereo not drawn) [Rosiglitazone, rosiglitazone]	99.8%	–	–
CCCCC/C=C\C/C=C\CCCCCCCC(=O)O [Linoleic acid, linoleic acid]	–	can enhance adipogenesis of preadipocytes	could not affect the differentiation process
